Results: patent publication US9913801B2 (YOUR ENERGY SYSTEMS, LLC, priority 2013, dated 2018)
Where two headings read alike, the source gives them in different places.

Experiments:
[1] = test system: Mycobacterium tuberculosis; conditions: at 10 millimolar
[2] = rat liver, cited from earlier work

Q: Which “Mycobacterium tuberculosis CFU/ml” value [1] does the source give for `CC(=O)N[C@@H](CS)C(=O)O` [NAC, N-Acetyl Cysteine] here?
A: 8,000 CFU/ml

Q: For `N[C@@H](CCC(=O)N[C@@H](CS)C(=O)NCC(=O)O)C(=O)O` [Plain glutathione, glutathione], which removal of toxin ([2]; intravenous) is on record?
A: 64%

Q: And the removal of toxin ([2]; oral)?
A: 0%
